Reference: patent publication US11981686B2, “Urea compound having substituent” (DAIICHI SANKYO COMPANY, LIMITED, priority 2019, dated 2024)

Target: SIRT6 enzyme (Homo sapiens, UniProt Q8N6T7)
Experiment: Measurement of deacetylation activity (SIRT6, AlphaLISA, H3K9(Ac) peptide)
Assay type: biochemical
Settings: SIRT6 25 ng/mL, H3K9(Ac) biotin peptide 2 nM, NAD 10 μM, room temperature 30 minutes, duplicate
In short: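 SIRT6 (25 ng/mL final) in Tris-HCl pH 8.0 buffer with compound (e.g. 0.046–100 μM final) reacted with biotin-H3K9(Ac) peptide (2 nM) and NAD+ (10 μM), 30 min, room temperature. Stopped with nicotinamide plus AlphaLISA anti-unmodified H3K9/K27 beads, 60 min; EC150 (150% relative activity) from sigmoidal fit.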

Chain of SIRT6 enzyme (Q8N6T7 whole entry, species assumed): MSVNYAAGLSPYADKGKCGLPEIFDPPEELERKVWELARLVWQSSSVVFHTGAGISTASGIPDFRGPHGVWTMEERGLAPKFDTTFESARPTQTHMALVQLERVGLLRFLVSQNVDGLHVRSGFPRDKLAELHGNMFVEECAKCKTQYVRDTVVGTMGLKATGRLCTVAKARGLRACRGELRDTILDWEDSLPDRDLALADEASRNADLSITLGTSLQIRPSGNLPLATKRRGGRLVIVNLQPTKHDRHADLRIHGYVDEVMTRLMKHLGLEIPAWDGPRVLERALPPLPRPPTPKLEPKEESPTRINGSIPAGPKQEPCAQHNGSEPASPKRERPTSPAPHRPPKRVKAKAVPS

Structure (SMILES) | EC150 (the concentration of the compound showing a relative enzyme activity of 150%) [μm]
CNC(=O)Nc1nc2c(s1)[C@@H]1COC[C@H](C2)N1c1nnc(-c2cccc(C(C)C)c2)o1 [Example 119, N-methyl-N′-[(4S,8S)-10-{5-[3-(propan-2-yl)phenyl]-1,3,4-oxadiazol-2-yl}-4,7,8,9-tetrahydro-5H-4,8-epiminooxocino[5,4-d][1,3]thiazol-2-yl]urea] | 2.2
COc1cccc(-c2noc(N3CCc4nc(NC(=O)NC5CCOCC5)sc4C3)n2)c1 [Example 108, N-{5-[3-(3-methoxyphenyl)-1,2,4-oxadiazol-5-yl]-4,5,6,7-tetrahydro[1,3]thiazolo[5,4-c]pyridin-2-yl}-N′-oxan-4-ylurea] | 2.4
C[C@H](CO)NC(=O)Nc1nc2c(s1)CN(c1nc(C3CCCC(F)(F)C3)no1)CC2 (stereo partly drawn) [Example 87, N-{5-[3-(3,3-difluorocyclohexyl)-1,2,4-oxadiazol-5-yl]-4,5,6,7-tetrahydro[1,3]thiazolo[5,4-c]pyridin-2-yl}-N′-[(2R)-1-hydroxypropan-2-yl]urea] | 2.1
C[C@H](O)CNC(=O)Nc1nc2c(s1)C1COCC(C2)N1c1nc(-c2ccc(F)cc2)no1 (stereo partly drawn) [Example 81, N-{10-[3-(4-fluorophenyl)-1,2,4-oxadiazol-5-yl]-4,7,8,9-tetrahydro-5H-4,8-epiminooxocino[5,4-d][1,3]thiazol-2-yl}-N′-[(2S)-2-hydroxypropyl]urea] | 1.4
CC(=O)N1CC2Cc3nc(NC(=O)N[C@@H]4CCOC4)sc3C(C1)N2c1nc(-c2ccc(F)cc2)no1 (stereo partly drawn) [Example 140, N-{6-acetyl-10-[3-(4-fluorophenyl)-1,2,4-oxadiazol-5-yl]-4,5,6,7,8,9-hexahydro-4,8-epimino[1,3]thiazolo[5,4-d]azocin-2-yl}-N′-[(3R)-oxolan-3-yl]urea] | 0.16
COc1ccc(-c2noc(N3CCc4nc(NC(=O)NC5CCOCC5)sc4C3)n2)cc1 [Example 107, N-{5-[3-(4-methoxyphenyl)-1,2,4-oxadiazol-5-yl]-4,5,6,7-tetrahydro[1,3]thiazolo[5,4-c]pyridin-2-yl}-N′-oxan-4-ylurea] | 2.3
CC(C)(O)CNC(=O)Nc1nc2c(s1)CN(c1nc(C3(C(F)(F)F)CC3)no1)CC2 [Example 92, N-(2-hydroxy-2-methylpropyl)-N′-(5-{3-[1-(trifluoromethyl)cyclopropyl]-1,2,4-oxadiazol-5-yl}-4,5,6,7-tetrahydro[1,3]thiazolo[5,4-c]pyridin-2-yl)urea] | 3.5
CNC(=O)Nc1nc2c(s1)C1COCC(C2)N1c1nc(-c2cccc(C(=O)C3CC3)c2)no1 (stereo not shown) [Example 112, N-(10-{3-[3-(cyclopropanecarbonyl)phenyl]-1,2,4-oxadiazol-5-yl}-4,7,8,9-tetrahydro-5H-4,8-epiminooxocino[5,4-d][1,3]thiazol-2-yl)-N′-methylurea] | 1.4
CNC(=O)Nc1nc2c(s1)CN(c1nnc(C(F)(F)F)o1)CC2 [Example 2, N-methyl-N′-{5-[5-(trifluoromethyl)-1,3,4-oxadiazol-2-yl]-4,5,6,7-tetrahydro[1,3]thiazolo[5,4-c]pyridin-2-yl}urea] | 1.6
CNC(=O)Nc1nc2c(s1)C1CN(C(=O)OC)CC(C2)N1c1nc(C2CCC(F)(F)C2)no1 (stereo not shown) [Example 131, Methyl 10-[3-(3,3-difluorocyclopentyl)-1,2,4-oxadiazol-5-yl]-2-[(methylcarbamoyl)amino]-4,7,8,9-tetrahydro-4,8-epimino[1,3]thiazolo[5,4-d]azocin-6(5H)-carboxylate] | 1.4
CNC(=O)Nc1nc2c(s1)C1CN(C(=O)OC)CC(C2)N1c1nc(-c2ccc(F)cn2)no1 (stereo not shown) [Example 142, Methyl 10-[3-(5-fluoropyridin-2-yl)-1,2,4-oxadiazol-5-yl]-2-[(methylcarbamoyl)amino]-4,7,8,9-tetrahydro-4,8-epimino[1,3]thiazolo[5,4-d]azocine-6(5H)-carboxylate] | 3.3
CNC(=O)Nc1nc2c(s1)C1CN(S(C)(=O)=O)CC(C2)N1c1nc(-c2ccc(F)cc2)no1 (stereo not shown) [Example 31, N-{10-[3-(4-fluorophenyl)-1,2,4-oxadiazol-5-yl]-6-(methanesulfonyl)-4,5,6,7,8,9-hexahydro-4,8-epimino[1,3]thiazolo[5,4-d]azocin-2-yl}-N′-methylurea] | 2.5
CCOc1ccc2oc(N3[C@@H]4COC[C@H]3c3sc(NC(=O)N[C@H](C)CO)nc3C4)nc2c1 [Example 52, N-[(4S,8S)-10-(5-ethoxy-1,3-benzoxazol-2-yl)-4,7,8,9-tetrahydro-5H-4,8-epiminooxocino[5,4-d][1,3]thiazol-2-yl]-N′-[(2R)-1-hydroxypropan-2-yl]urea] | 1.9
C[C@H](CO)NC(=O)Nc1nc2c(s1)[C@@H]1COC[C@H](C2)N1c1nc2cc(F)c(F)cc2o1 [Example 42, N-[(4S,8S)-10-(5,6-difluoro-1,3-benzoxazol-2-yl)-4,7,8,9-tetrahydro-5H-4,8-epiminooxocino[5,4-d][1,3]thiazol-2-yl]-N′-[(2R)-1-hydroxypropan-2-yl]urea] | 1.3
CNC(=O)Nc1nc2c(s1)C1CN(C(=O)OC(C)C)CC(C2)N1c1nc(-c2ccc(F)cc2)no1 (stereo not shown) [Example 32, Propan-2-yl 10-[3-(4-fluorophenyl)-1,2,4-oxadiazol-5-yl]-2-[(methylcarbamoyl)amino]-4,7,8,9-tetrahydro-4,8-epimino[1,3]thiazolo[5,4-d]azocine-6(5H)-carboxylate] | 0.27
CC(C)NC(=O)Nc1nc2c(s1)[C@@H]1COC[C@H](C2)N1c1nc2cc(S(C)(=O)=O)ccc2o1 [Example 50, N-{(4S,8S)-10-[5-(methanesulfonyl)-1,3-benzoxazol-2-yl]-4,7,8,9-tetrahydro-5H-4,8-epiminooxocino[5,4-d][1,3]thiazol-2-yl}-N′-propan-2-ylurea] | 1.5
O=C(NCC1(O)CC1)Nc1nc2c(s1)CN(c1nc(C3CCC(F)(F)CC3)no1)CC2 [Example 104, N-{5-[3-(4,4-difluorocyclohexyl)-1,2,4-oxadiazol-5-yl]-4,5,6,7-tetrahydro[1,3]thiazolo[5,4-c]pyridin-2-yl}-N′-[(1-hydroxycyclopropyl)methyl]urea] | 1.6
CNC(=O)Nc1nc2c(s1)C1COCC(C2)N1c1ncc(-c2cccc(C(F)F)c2)o1 (stereo not shown) [Example 14, N-(10-{5-[3-(difluoromethyl)phenyl]-1,3-oxazol-2-yl}-4,7,8,9-tetrahydro-5H-4,8-epiminooxocino[5,4-d][1,3]thiazol-2-yl)-N′-methylurea] | 0.94
C[C@H](CO)NC(=O)Nc1nc2c(s1)[C@@H]1COC[C@H](C2)N1c1nc2cc(F)cc(F)c2o1 [Example 147, N-[(4S,8S)-10-(5,7-difluoro-1,3-benzoxazol-2-yl)-4,7,8,9-tetrahydro-5H-4,8-epiminooxocino[5,4-d][1,3]thiazol-2-yl]-N′-[(2R)-1-hydroxypropan-2-yl]urea] | 3.3
O=C(Nc1nc2c(s1)[C@@H]1COC[C@H](C2)N1c1cc(-c2ccc(F)cc2)on1)NC1CCOCC1 [Example 161, N-{(4S,8S)-10-[5-(4-fluorophenyl)-1,2-oxazol-3-yl]-4,7,8,9-tetrahydro-5H-4,8-epiminooxocino[5,4-d][1,3]thiazol-2-yl}-N′-oxan-4-ylurea] | 0.97
CC(C)(CO)NC(=O)Nc1nc2c(s1)[C@@H]1COC[C@H](C2)N1c1ncc(-c2cccc(OC(F)F)c2)o1 [Example 170, N-[(4S,8S)-10-{5-[3-(difluoromethoxy)phenyl]-1,3-oxazol-2-yl}-4,7,8,9-tetrahydro-5H-4,8-epiminooxocino[5,4-d][1,3]thiazol-2-yl]-N′-(1-hydroxy-2-methylpropan-2-yl)urea] | 1.2
Cn1ccc(CNC(=O)Nc2nc3c(s2)[C@@H]2COC[C@H](C3)N2c2ncc(-c3cccc(OC(F)F)n3)o2)cc1=O [Example 178, N-[(4S,8S)-10-{5-[6-(difluoromethoxy)pyridin-2-yl]-1,3-oxazol-2-yl}-4,7,8,9-tetrahydro-5H-4,8-epiminooxocino[5,4-d][1,3]thiazol-2-yl]-N′-[(1-methyl-2-oxo-1,2-dihydropyridin-4-yl)methyl]urea] | 0.1
COc1cccc(-c2cnc(N3[C@@H]4COC[C@H]3c3sc(NC(=O)N[C@H](C)CO)nc3C4)o2)n1 [Example 67, N-[(2R)-1-hydroxypropan-2-yl]-N′-{(4S,8S)-10-[5-(6-methoxypyridin-2-yl)-1,3-oxazol-2-yl]-4,7,8,9-tetrahydro-5H-4,8-epiminooxocino[5,4-d][1,3]thiazol-2-yl}urea] | 0.75
CNC(=O)Nc1nc2c(s1)C1CN(C(C)=O)CC(C2)N1c1nc(-c2cccc(F)c2)no1 (stereo not shown) [Example 138, N-{6-acetyl-10-[3-(3-fluorophenyl)-1,2,4-oxadiazol-5-yl]-4,5,6,7,8,9-hexahydro-4,8-epimino[1,3]thiazolo[5,4-d]azocin-2-yl}-N′-methylurea] | 0.46
CNC(=O)Nc1nc2c(s1)CN(c1nc(C3CCC(F)(F)CC3)no1)CC2 [Example 1, N-{5-[3-(4,4-difluorocyclohexyl)-1,2,4-oxadiazol-5-yl]-4,5,6,7-tetrahydro[1,3]thiazolo[5,4-c]pyridin-2-yl}-N′-methylurea] | 1.7
